# Measurements: patent US6875760B2 (Novo Nordisk A/S, priority 1999, dated 2005)
# Biological target: T1, human glucagon receptor (Homo sapiens, UniProt P47871)
# T1 construct: expressed in transfected cells; host or cells: BHK (baby hamster kidney) cells
# Assay: Glucagon Binding Assay (III)
# Conditions: BHK cell membranes, WGA SPA beads, 125I-glucagon; read-out: Glu Bd Assay (III) IC50
# Protocol: BHK (baby hamster kidney cell line) cells were transfected with the human glucagon receptor and a membrane preparation of the cells was prepared.
# All steps in the membrane preparation were kept on ice or performed at 4° C. BHK cells were harvested and centrifuged. […] The pellet was resuspended in homogenisation buffer, homogenised 2×10 sec (Polytron) and additional homogenisation buffer was added. […] (Polytron).
# The glucagon binding assay was carried out in opti plates (Polystyrene Microplates, Packard). […] Finally 50 μL WGA beads containing 1 mg beads were transferred to the well. The assay was incubated for 4 hours on a shaker and then settled for 8-48 hours. The opti plates were counted in a Topcounter. Non-specific binding was determined with 500 nM of glucagon.
# T1 sequence (P47871 26-477): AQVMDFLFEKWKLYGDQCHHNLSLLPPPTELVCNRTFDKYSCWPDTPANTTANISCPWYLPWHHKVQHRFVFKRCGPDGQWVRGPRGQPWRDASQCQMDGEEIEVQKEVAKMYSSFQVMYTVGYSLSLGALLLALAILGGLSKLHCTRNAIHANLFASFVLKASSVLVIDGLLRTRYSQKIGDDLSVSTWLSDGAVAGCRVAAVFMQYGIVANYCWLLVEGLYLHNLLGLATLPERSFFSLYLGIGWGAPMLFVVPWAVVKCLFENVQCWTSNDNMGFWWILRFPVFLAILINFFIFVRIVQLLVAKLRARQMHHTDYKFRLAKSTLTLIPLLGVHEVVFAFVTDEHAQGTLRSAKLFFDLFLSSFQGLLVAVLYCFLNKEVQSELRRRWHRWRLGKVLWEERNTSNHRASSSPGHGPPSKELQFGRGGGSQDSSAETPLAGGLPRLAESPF
row,IC50 [nM],Compound
1,547,"O=C(Nc1nn[nH]n1)c1ccc(CN(C(=O)Nc2cc(Cl)cc(Cl)c2)c2ccc(N3CCCCC3)cc2)cc1 [Example 316, 4-[3-(3,5-Dichlorophenyl)-1-(4-piperidin-1-ylphenyl)ureidomethyl]-N-(2H-tetrazol-5-yl)benzamide]"
2,28,"CS(=O)(=O)c1ccc(NC(=O)N(Cc2ccc(C(=O)Nc3nn[nH]n3)cc2)c2ccc(C3CCCCC3)cc2)s1 [Example 320, 4-[1-(4-Cyclohexylphenyl)-3-(5-methylsulfonylthiophen-2-yl)ureidomethyl]-N-(2H-tetrazol-5-yl)benzamide]"
3,2110,"CC(C)Oc1ccc(C(=O)N(Cc2ccc(C(=O)NCCC(=O)O)cc2)c2ccc(C3CCCCC3)cc2)cc1 [Example 523, 3-(4-{[(4-Cyclohexylphenyl)-(4-isopropoxybenzoyl)amino]methyl}benzoylamino)propionic acid]"
4,1650,"O=C(O)CCNC(=O)c1ccc(CN(C(=O)Nc2ccc(OC(F)(F)F)cc2)[C@H]2CC[C@H](OC(=O)Nc3ccc(OC(F)(F)F)cc3)CC2)cc1 [Example 97, 3-{4-[1-(trans-4-(4-Trifluoromethoxyphenylcarbamoyloxy)cyclohexyl)-3-(4-trifluoromethoxyphenyl)ureidomethyl]benzoylamino}propionic acid]"
5,4,"O=C(Nc1nn[nH]n1)c1ccc(CN(C(=O)Nc2ccc3c(c2)C(=O)N(CC2CC2)C3=O)c2ccc(C3=CCCCC3)cc2)cc1 [Example 644, 4-[3-(N′-[Cyclopropylmethyl]phthalimid-4-yl)-1-(4-cyclohex-1-enylphenyl)ureidomethyl]-N-(2H-tetrazol-5-yl)benzamide]"
6,136,"CC(C)(C)C1CCC(N(Cc2ccc(C(=O)Nc3nn[nH]n3)cc2)C(=O)c2cc3cc(Cl)ccc3o2)CC1 (stereo not shown) [Example 490, 5-Chlorobenzofuran-2-carboxylic acid (4-tert-butylcyclohexyl)-[4-(2H-tetrazol-5-ylcarbamoyl)benzyl]amide]"
7,45,"O=C(Nc1nn[nH]n1)c1ccc(CN(C(=O)Nc2cc(Cl)cc(Cl)c2)c2ccc(C3CCCCC3)cc2)cc1 [Example 304, 4-[1-(4-Cyclohexylphenyl)-3-(3,5-dichlorophenyl)ureidomethyl]-N-(2H-tetrazol-5-yl)benzamide]"
8,104,"CCCCOC(=O)c1ccc(NC(=O)N(Cc2ccc(C(=O)NCCC(=O)O)cc2)C2CCC(C(C)(C)C)CC2)cc1 (stereo not shown) [Example 33, 4-{3-(4-tert-Butylcyclohexyl)-3-[4-(2-carboxyethylcarbamoyl)benzyl]ureido}benzoic acid butyl ester]"
9,50,"O=C(Nc1nn[nH]n1)c1ccc(CN(C(=O)Nc2ccc(OC(F)(F)F)cc2)c2ccc(C3=CCCCC3)cc2)cc1 [Example 307, 4-[1-(4-Cyclohex-1-enylphenyl)-3-(4-trifluoromethoxyphenyl)ureidomethyl]-N-(2H-tetrazol-5-yl)benzamide]"
10,1090,"CC(C)(C)c1ccc(N(Cc2ccc(C(=O)Nc3nn[nH]n3)cc2)C(=O)c2cc3cc(OC(F)(F)F)ccc3[nH]2)cc1 [Example 559, 5-Trifluoromethoxy-1H-indole-2-carboxylic acid (4-tert-butylphenyl)-[4-(2H-tetrazol-5-ylcarbamoyl)benzyl]amide]"
11,470,"O=C(Nc1nn[nH]n1)c1ccc(CN(CC(c2ccccc2)c2ccccc2)C(=O)Cc2cccc(OC(F)(F)F)c2)cc1 [Example 529, 4-({(2,2-Diphenylethyl)-[2-(3-trifluoromethoxyphenyl)acetyl]amino}methyl)-N-(2H-tetrazol-5-yl)benzamide]"
12,55,"Cc1ccc(NC(=O)N(Cc2ccc(C(=O)Nc3nn[nH]n3)cc2)c2ccc(C3CCCCC3)cc2)cc1S(C)(=O)=O [Example 305, 4-[1-(4-Cyclohexylphenyl)-3-(3-methylsulfonyl-4-methylphenyl)ureidomethyl]-N-(2H-tetrazol-5-yl)benzamide]"
13,42,"O=C(Nc1nn[nH]n1)c1ccc(CN(C(=O)Nc2ccc(OC(F)(F)F)cc2)c2ccc(C3CCCCC3)cc2)cc1 [Example 291, 4-[1-(4-Cyclohexylphenyl)-3-(4-trifluoromethoxyphenyl)ureidomethyl]-N-(2H-tetrazol-5-yl)benzamide]"
14,381,"CC(C(=O)N(Cc1ccc(C(=O)Nc2nn[nH]n2)cc1)C1CCC(C(C)(C)C)CC1)c1ccccc1 (stereo not shown) [Example 550, 4-{[(4-tert-Butylcyclohexyl)-(2-Phenylpropionyl)amino]methyl}-N-(2H-tetrazol-5-yl)benzamide]"
15,772,"CNS(=O)(=O)c1ccc(Cl)c(NC(=O)N(Cc2ccc(C(=O)Nc3nn[nH]n3)cc2)c2ccc(C3CCCCC3)cc2)c1 [Example 467, 4-[3-(2-Chloro-5-methylsulfamoylphenyl)-1-(4-cyclohexylphenyl)ureidomethyl]-N-(2H-tetrazol-5-yl)benzamide]"
16,667,"CC(C)(C)C1CCC(N(Cc2ccc(C(=O)Nc3nn[nH]n3)cc2)C(=O)c2cccc(C(F)(F)F)c2)CC1 (stereo not shown) [Example 514, 4-{[(4-tert-Butylcyclohexyl)-(3-trifluoromethylbenzoyl)amino]methyl}-N-(2H-tetrazol-5-yl)benzamide]"
17,144,"O=C(Nc1nn[nH]n1)c1ccc(CN(C(=O)Cc2cccc(OC(F)(F)F)c2)c2ccc(C3CCCCC3)cc2)cc1 [Example 492, 4-({(4-Cyclohexylphenyl)-[2-(3-trifluoromethoxyphenyl)acetyl]amino}methyl)-N-(2H-tetrazol-5-yl)benzamide]"
18,30,"CC(C)(C)c1ccc(N(Cc2ccc(C(=O)Nc3nn[nH]n3)cc2)C(=O)Nc2ccc(Cl)c(C(F)(F)F)c2)cc1 [Example 331, 4-[1-(4-tert-Butylphenyl)-3-(4-chloro-3-trifluoromethylphenyl)ureidomethyl]-N-(2H-tetrazol-5-yl)benzamide]"
19,43,"CCC(C)(C)C1CCC(N(Cc2ccc(C(=O)NCCC(=O)O)cc2)C(=O)Nc2ccc(OC(F)(F)F)cc2)CC1 (stereo not shown) [Example 87, 3-{4-[1-[4-(1,1-Dimethylpropyl)cyclohexyl]-3-(4-trifluoromethoxyphenyl)ureidomethyl]benzoylamino}propionic acid]"
20,880,CC(Oc1ccc(OC(F)(F)F)cc1)C(=O)N(Cc1ccc(C(=O)Nc2nn[nH]n2)cc1)c1ccc(C2CCCCC2)cc1 (stereo not shown) [Example 493]
21,819,"CC1CCCC(N(Cc2ccc(C(=O)NCCC(=O)O)cc2)C(=O)Nc2ccc(Oc3ccccc3)cc2)C1 (stereo not shown) [Example 44, 3-{4-[1-(3-Methylcyclohexyl)-3-(4-phenoxyphenyl)ureidomethyl]benzoylamino}propionic acid]"
22,21,"CC(C)(C)C1CCC(N(Cc2ccc(C(=O)NCCC(=O)O)cc2)C(=O)Nc2ccc3c(c2)C(=O)N(CC2CC2)C3=O)CC1 (stereo not shown) [Example 641, 3-{4-[1-(4-tert-Butylcyclohexyl)-3-(N′-[cyclopropylmethyl]phthalimid-4-yl)ureidomethyl]benzoylamino}propionic acid]"
23,266,"CCOC(=O)c1ccc2nc(NC(=O)N(Cc3ccc(C(=O)NCCC(=O)O)cc3)[C@H]3CC[C@H](C(C)(C)C)CC3)sc2c1 [Example 254, 2-{3-(4-trans-tert-Butylcyclohexyl)-3-[4-(2-carboxyethylcarbamoyl)benzyl]ureido}benzothiazole-6-carboxylic acid ethyl ester]"
24,294,"CCC[C@H]1CC[C@@H](N(Cc2ccc(C(=O)NCCC(=O)O)cc2)C(=O)Nc2ccc(OC(F)(F)F)cc2)CC1 [Example 77, 3-{4-[1-(4-cis-Propylcyclohexyl)-3-(4-trifluoromethoxyphenyl)ureidomethyl]benzoylamino}propionic acid]"
25,1170,"CC(C)(C)[C@H]1CC[C@H](N(Cc2ccc(C(=O)NCCC(=O)O)cc2)C(=O)Nc2cc(-c3ccccc3)n[nH]2)CC1 [Example 253, 3-{4-[1-(4-trans-tert-Butylcyclohexyl)-3-(5-Phenyl-2H-pyrazol-3-yl)ureidomethyl]benzoylamino}propionic acid]"
26,83,"CC(=O)c1ccc(NC(=O)N(Cc2ccc(C(=O)NCCC(=O)O)cc2)C2CCC(C(C)(C)C)CC2)cc1 (stereo not shown) [Example 60, 3-{4-[3-(4-Acetylphenyl)-1-(4-tert-butylcyclohexyl)ureidomethyl]benzoylamino}propionic acid]"
27,1060,"O=C(Nc1nn[nH]n1)c1ccc(CN(C(=O)c2cc3cc(OC(F)(F)F)ccc3[nH]2)c2ccc(C3CCCCC3)cc2)cc1 [Example 558, 5-Trifluoromethoxy-1H-indole-2-carboxylic acid (4-cyclohexylphenyl)-[4-(2H-tetrazol-5-ylcarbamoyl)benzyl]amide]"
28,72,"CCS(=O)(=O)c1cccc(NC(=O)N(Cc2ccc(C(=O)Nc3nn[nH]n3)cc2)c2ccc(C3CCCCC3)cc2)c1 [Example 453, 4-[1-(4-Cyclohexylphenyl)-3-(3-ethylsulfonylphenyl)ureidomethyl]-N-(2H-tetrazol-5-yl)benzamide]"

row,Compound,IC50 [nM]
1,"O=C(O)CCNC(=O)c1ccc(CN(C(=O)Oc2ccc(F)c(F)c2)c2ccc(C3CCCCC3)cc2)cc1 [Example 417, 3-(4-{[(4-Cyclohexylphenyl)-(3,4-difluorophenoxycarbonyl)amino]methyl}benzoylamino)propionic acid]",877
2,"CCCCOc1ccc(NC(=O)N(Cc2ccc(C(=O)Nc3nn[nH]n3)cc2)c2ccc(C3CCCCC3)cc2)cc1S(C)(=O)=O [Example 368, 4-[3-(4-Butoxy-3-methylsulfonylphenyl)-1-(4-cyclohexylphenyl)ureidomethyl]-N-(2H-tetrazol-5-yl)benzamide]",37
3,"CC(C)(C)c1ccc(N(Cc2ccc(C(=O)NCCC(=O)O)cc2)C(=O)Oc2cccc(OC(F)(F)F)c2)cc1 [Example 412, 3-(4-{[(4-tert-Butylphenyl)-(3-trifluoromethoxyphenoxycarbonyl)amino]methyl}benzoylamino)propionic acid]",604
